According to US12257247B2 (Monte Rosa Therapeutics AG, priority 2023, dated 2025):
Like-named read-outs stand apart in the source and are kept apart here.

Target: T1, VAV1 (Homo sapiens, UniProt P15498+Q96SW2)
T1 construct: A heterozygous VAV1 C-terminal HiBiT knock-in pool was generated at Monte Rosa Therapeutics from a clonal Jurkat cell; endogenous in cells; host or cells: Jurkat clone stably expressing LgBiT, homozygous GSPT1-G575N; heterozygous VAV1-HiBiT knock-in pool
Experiment: VAV1 degradation activity, VAV1-HiBiT knock-in Jurkat luminescence assay (Example A, Table 1)
Type: cell-based
Conditions: VAV1-HiBiT knock-in Jurkat cells; for Dmax: Jurkat
Method in brief: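 Jurkat cells carrying VAV1-HiBiT knock-in, plated in RPMI/10% FBS with Endurazine live-cell substrate and pre-incubated ~16 h at 37° C. Compound dosed from 10 μM stock; luminescence read 6 and 24 h later. Response normalised to plate negative/positive controls, EC50 from 3-parameter logistic fit (hillslope 1).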

[1] = luminescence read at 6 and 24 hours after compound addition, read-out: VAV1 Dmax %
[2] = luminescence read at 6 and 24 hours after compound addition, read-out: VAV1 Dmax %, class
[3] = luminescence read at 6 and 24 hours after compound addition, read-out: VAV1 DC50
[4] = luminescence read at 6 and 24 hours after compound addition, read-out: VAV1 DC50 (nM), class
[5] = luminescence read at 6 and 24 hours, read-out: VAV1 Dmax %
[6] = luminescence read at 6 and 24 hours, read-out: VAV1 Dmax %, class
[7] = luminescence read at 6 and 24 hours, read-out: VAV1 DC50
[8] = luminescence read at 6 and 24 hours, read-out: VAV1 DC50 (nM), class

Compound | Dmax [1] [%] | Dmax [2] [%] | DC50 [3] [nM] | DC50 [4] [nM] | Dmax [5] [%] | Dmax [6] [%] | DC50 [7] [nM] | DC50 [8] [nM]
CC1CCCC(=O)N1Cc1ccc(-c2cccc(C3CCC(=O)NC3=O)c2Cl)cc1 (stereo not drawn) [Compound 295] | – | – | – | – | 94.8 | > 90 | 9.84 | ≤ 100
O=C1CCC(c2cccc(-c3ccc(CN4Cc5cccnc5C4=O)cc3)c2Cl)C(=O)N1 (stereo not drawn) [Compound 299] | – | – | – | – | 91.6 | > 90 | 91.5 | ≤ 100
O=C1CCC(c2cccc(-c3ccc(N4CCCCC4C(F)(F)F)cc3)c2Cl)C(=O)N1 (stereo not drawn) [Compound 476] | – | – | – | – | 84 | 60 to 90 | 397 | 100 to 1000
CN1CCC2(CC2)N(c2ccc(-c3cccc(C4CCC(=O)NC4=O)c3Cl)cc2)C1=O (stereo not drawn) [Compound 366, 3-(2-chloro-4′-(6-methyl-5-oxo-4,6-diazaspiro[2.5]octan-4-yl)-[1,1′-biphenyl]-3-yl)piperidine-2,6-dione] | – | – | – | – | 97.8 | > 90 | 1.87 | ≤ 100
CN1CCCN(Cc2ccc(-c3cccc(C4CCC(=O)NC4=O)c3Cl)cn2)C1=O (stereo not drawn) [Compound 432, 3-(2-chloro-3-(6-((3-methyl-2-oxotetrahydropyrimidin-1(2H)-yl)methyl)pyridin-3-yl)phenyl)piperidine-2,6-dione] | – | – | – | – | 71.9 | 60 to 90 | 182 | 100 to 1000
O=C1CCC(c2cccc(-c3ccc(CS(=O)(=O)N4CCCC4)cc3)c2Cl)C(=O)N1 (stereo not drawn) [Compound 423, 3-(2-chloro-4′-((pyrrolidin-1-ylsulfonyl)methyl)-[1,1′-biphenyl]-3-yl)piperidine-2,6-dione] | – | – | – | – | 74.6 | 60 to 90 | 144 | 100 to 1000
O=C1CC[C@@](F)(c2cccc(-c3ccc(N4CCCCC4=O)cc3)c2Cl)C(=O)N1 (single isomer, unassigned) [Compound 368] | – | – | – | – | 98.5 | > 90 | 1.84 | ≤ 100

Other lines, results leading:

Dmax [1] [%] | Dmax [2] [%] | DC50 [3] [nM] | DC50 [4] [nM] | Dmax [5] [%] | Dmax [6] [%] | DC50 [7] [nM] | DC50 [8] [nM] | Compound
82.8 | 60 to 90 | 23.7 | ≤ 100 | – | – | – | – | O=C1CCC(c2cccc(-c3ccc4c(c3)OCCN4)c2Cl)C(=O)N1 (stereo not drawn) [Compound 487, 3-(2-chloro-3-(3,4-dihydro-2H-benzo[b][1,4]oxazin-7-yl)phenyl)piperidine-2,6-dione]
– | – | – | – | 98.4 | > 90 | 4.35 | ≤ 100 | COc1cnc(Cc2ccc(-c3cccc(C4CCC(=O)NC4=O)c3Cl)cc2)nc1 (stereo not drawn) [Compound 422, 3-(2-chloro-4′-((5-methoxypyrimidin-2-yl)methyl)-[1,1′-biphenyl]-3-yl)piperidine-2,6-dione]
– | – | – | – | 84.9 | 60 to 90 | 102 | 100 to 1000 | O=C1CCC(c2cccc(-c3ccc(N4CCOC(F)(F)C4=O)cc3)c2Cl)C(=O)N1 (stereo not drawn) [Compound 320]
– | – | – | – | 27 | < 60 | ≥ 10000 | > 1000 | O=C1CCC(c2cccc(-c3ccc(C4COC(=O)N4)c(F)c3)c2Cl)C(=O)N1 (stereo not drawn) [Compound 107]
88.5 | 60 to 90 | 15.7 | ≤ 100 | – | – | – | – | O=C1CCC(c2cccc(-c3ccc4c(c3)CCN4)c2F)C(=O)N1 (stereo not drawn) [Compound 491, 3-(2-fluoro-3-(indolin-5-yl)phenyl)piperidine-2,6-dione]
– | – | – | – | 71.2 | 60 to 90 | 615 | 100 to 1000 | N#CC1(CN2C(=O)Cc3cc(-c4cccc(C5CCC(=O)NC5=O)c4Cl)ccc32)CC1 (stereo not drawn) [Compound 390, 1-((5-(2-chloro-3-(2,6-dioxopiperidin-3-yl)phenyl)-2-oxoindolin-1-yl)methyl)cyclopropane-1-carbonitrile]
– | – | – | – | 72 | 60 to 90 | 353 | 100 to 1000 | O=C1CCC(c2cccc(-c3ccc(OCCCO)cc3)c2Cl)C(=O)N1 (stereo not drawn) [Compound 117]
– | – | – | – | 47.8 | < 60 | ≥ 10000 | > 1000 | COc1ccc(-c2cccc(C3CCC(=O)NC3=O)c2Cl)cc1OC(F)F (stereo not drawn) [Compound 108]
